Each structure is given as a SMILES string.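 Five compound concentrations were applied to cells in 96-well plates for 48 hours; endpoints were derived by simple linear interpolation of the resulting dose-response curve. The concentration for 50% growth inhibition is given as GI50. Definition used: TGI = concentration required for complete inhibition of growth.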

Test systems include ACHN renal; A498 renal; SK-MEL-5 melanoma; OVCAR-3 ovarian; MDA-MB-435; EKVX NSCLC; RPMI-8226 leukemia; DU-145 prostate; SF-268 CNS; HCT-15 colon.
Test in all cases: inhibition of tumour cell growth, NCI panel, 48 h

Turning to `C[C@@H]1Cc2c([nH]c3ccccc23)[C@@H](c2c(F)cc(NC3CN(CCCF)C3)cc2F)N1CC(F)(F)CO`, the GI50 with ACHN renal is 4.8 µM; with A498 renal, 1.64 µM; in the experiment on SK-MEL-5 melanoma it was 1.92 µM; with OVCAR-3 ovarian, 11.3 µM; with MDA-MB-435, 3.89 µM; in the experiment with EKVX NSCLC, 5.41 µM. In addition, the GI50 in the experiment on RPMI-8226 leukemia was 2.82 µM; with DU-145 prostate, 6.52 µM; in the experiment with SF-268 CNS, 4.78 µM; with HCT-15 colon, 3.5 µM. Also, the TGI in the experiment on ACHN renal was found to be 17.1 µM; in the experiment with A498 renal, 8.82 µM; with SK-MEL-5 melanoma, 3.68 µM; in the experiment on OVCAR-3 ovarian, 26.3 µM; in the experiment with MDA-MB-435, 15.1 µM; in the experiment on EKVX NSCLC, 19.3 µM. The TGI came to 14.1 µM in the experiment with RPMI-8226 leukemia, 20.2 µM with DU-145 prostate, 19.5 µM with SF-268 CNS and 12.7 µM in the experiment on HCT-15 colon.

For the compound `COc1ccc(C[C@@H]2NC[C@@H](O)[C@@H]2OC(C)=O)cc1`, the GI50 with ACHN renal was 9.5 µM; in the experiment with A498 renal it was 1.14 µM; in the experiment with SK-MEL-5 melanoma it was 0.456 µM; in the experiment with OVCAR-3 ovarian, 5.34 µM; in the experiment with EKVX NSCLC, 1.55 µM; in the experiment with RPMI-8226 leukemia, 1.79 µM. Besides, in the experiment on SF-268 CNS, the GI50 is 4.37 µM. The values for the TGI in the experiment on MDA-MB-435, with DU-145 prostate and in the experiment on HCT-15 colon were 0.0883 µM, 0.0947 µM and 0.19 µM, respectively.

Consider `CN(C)C/C=C/C(=O)Nc1cc2c(Nc3ccc(F)c(Cl)c3F)ncnc2cc1OCCOC(F)F`, for which the GI50 in the experiment with ACHN renal was below 0.01 µM; in the experiment on A498 renal it was 0.282 µM; with SK-MEL-5 melanoma, 1.6 µM; in the experiment with OVCAR-3 ovarian, 0.101 µM; in the experiment with MDA-MB-435 it was 1.17 µM; in the experiment on EKVX NSCLC it was below 0.0302 µM. The GI50 in the experiment with RPMI-8226 leukemia is 0.921 µM; with DU-145 prostate, 0.191 µM; in the experiment on SF-268 CNS, 0.71 µM; in the experiment with HCT-15 colon, 0.491 µM. The TGI with ACHN renal is 1.08 µM; in the experiment with A498 renal, 1.91 µM; with SK-MEL-5 melanoma it was 3.39 µM; with OVCAR-3 ovarian, 1.73 µM; in the experiment on MDA-MB-435, 6.63 µM; in the experiment on EKVX NSCLC, 3 µM. The TGI in the experiment with RPMI-8226 leukemia is 4.68 µM; in the experiment on DU-145 prostate, 3.34 µM; in the experiment on SF-268 CNS it was 3.89 µM; in the experiment on HCT-15 colon, 2.96 µM.

With `CN1C(=O)[C@@H](NC(=O)[C@H](CCC(F)(F)F)[C@H](CCC(F)(F)F)C(N)=O)N=C(c2ccccc2)c2ccccc21`, the GI50 in the experiment with ACHN renal was 45 µM; in the experiment on A498 renal, 47.7 µM; with SK-MEL-5 melanoma it was 36.1 µM; in the experiment with OVCAR-3 ovarian it was above 100 µM; in the experiment with MDA-MB-435 it was 85.6 µM; in the experiment with EKVX NSCLC it was 68 µM. The GI50 in the experiment with RPMI-8226 leukemia is 58.7 µM; in the experiment with DU-145 prostate, above 100 µM; with SF-268 CNS, above 100 µM; in the experiment with HCT-15 colon, 89.5 µM. Further, the TGI with ACHN renal, in the experiment on A498 renal, with SK-MEL-5 melanoma, with OVCAR-3 ovarian, with MDA-MB-435 and in the experiment with EKVX NSCLC was above 100 µM each time. The TGI in the experiment on RPMI-8226 leukemia, in the experiment on DU-145 prostate, with SF-268 CNS and in the experiment on HCT-15 colon was above 100 µM throughout.

Regarding `O=C(Nc1ccccc1O)c1ccc(CNc2ccnc(C(F)(F)F)c2)cc1`, the GI50 with ACHN renal is 2.59 µM; with A498 renal it was 2.84 µM; in the experiment on SK-MEL-5 melanoma, 2.2 µM; with OVCAR-3 ovarian it was 4.88 µM; in the experiment on MDA-MB-435, 3.47 µM; with EKVX NSCLC, 4.19 µM. The GI50 is 0.5 µM in the experiment on RPMI-8226 leukemia, 3.38 µM in the experiment on DU-145 prostate, 4.55 µM in the experiment on SF-268 CNS and 11.8 µM in the experiment with HCT-15 colon. In addition, the TGI was above 100 µM in the experiment with ACHN renal; 12.2 µM with A498 renal; 10.2 µM with SK-MEL-5 melanoma; 21.9 µM in the experiment on OVCAR-3 ovarian; 20.9 µM in the experiment with MDA-MB-435; above 100 µM in the experiment on EKVX NSCLC. Besides, the TGI is 5.09 µM with RPMI-8226 leukemia, 19.4 µM with DU-145 prostate, 26.3 µM in the experiment with SF-268 CNS and above 100 µM with HCT-15 colon.

As to `CCn1cc(-c2ccnc3[nH]ccc23)c(-c2cccc(NC(=O)Nc3ccc(OCc4ccccc4)cc3)c2)n1`, the GI50 in the experiment on ACHN renal is 15.2 µM; with A498 renal, 7.64 µM; in the experiment on SK-MEL-5 melanoma it was 13.5 µM; in the experiment with OVCAR-3 ovarian, 6.24 µM; in the experiment on MDA-MB-435, 11 µM; with EKVX NSCLC it was 21.8 µM. Also, the GI50 in the experiment with RPMI-8226 leukemia is 4.19 µM; with DU-145 prostate, above 25 µM; in the experiment with SF-268 CNS, above 19.7 µM; in the experiment with HCT-15 colon it was 6.28 µM. The TGI was above 25 µM in the experiment on ACHN renal; above 25 µM in the experiment with A498 renal; above 25 µM with SK-MEL-5 melanoma; 19.6 µM in the experiment on OVCAR-3 ovarian; above 25 µM in the experiment with MDA-MB-435; above 25 µM in the experiment with EKVX NSCLC. Also, the TGI with RPMI-8226 leukemia, in the experiment with DU-145 prostate, in the experiment with SF-268 CNS and with HCT-15 colon was above 25 µM throughout.

Turning to `COc1ccc(/C=C2\CC(C)CC3C2=NN(C(C)=O)C3c2ccc(OC)cc2)cc1` (stereo not given), the GI50 in the experiment with ACHN renal was 17.2 µM; in the experiment on A498 renal, 17 µM; in the experiment on SK-MEL-5 melanoma it was 13.9 µM; with OVCAR-3 ovarian, 18.7 µM; in the experiment on MDA-MB-435, 19.9 µM; in the experiment with EKVX NSCLC, 27.3 µM. In addition, the GI50 with RPMI-8226 leukemia was 10.9 µM; in the experiment on DU-145 prostate, 25.7 µM; in the experiment with SF-268 CNS, 20.8 µM; with HCT-15 colon it was 16 µM. The TGI in the experiment with ACHN renal is 39.3 µM; in the experiment on A498 renal, 33.1 µM; in the experiment with SK-MEL-5 melanoma, 31.3 µM; with OVCAR-3 ovarian, 42.4 µM; in the experiment on MDA-MB-435, 49.1 µM; with EKVX NSCLC it was above 100 µM. Also, the TGI in the experiment with RPMI-8226 leukemia worked out at 53.2 µM; in the experiment on DU-145 prostate, 78.1 µM; in the experiment with SF-268 CNS, 53.2 µM; in the experiment with HCT-15 colon, 38.7 µM.

On to `Fc1ccc(-c2ncn(C3CCNCC3)c2-c2ccnc(Oc3ccc(F)c(F)c3)n2)cc1`, for which the GI50 was 9.9 µM with ACHN renal; 10.8 µM in the experiment with A498 renal; 3.55 µM with SK-MEL-5 melanoma; 6.68 µM with OVCAR-3 ovarian; 6.44 µM with MDA-MB-435; above 14.6 µM in the experiment on EKVX NSCLC. Further, the GI50 was 12.5 µM with RPMI-8226 leukemia, 8.78 µM in the experiment with DU-145 prostate, 12 µM in the experiment with SF-268 CNS and 5.64 µM with HCT-15 colon. In addition, the TGI in the experiment with ACHN renal was above 25 µM; in the experiment with A498 renal, above 25 µM; in the experiment on SK-MEL-5 melanoma, 6.83 µM; in the experiment with OVCAR-3 ovarian, above 14.4 µM; with MDA-MB-435, above 15.5 µM; in the experiment on EKVX NSCLC it was above 25 µM. The TGI in the experiment on RPMI-8226 leukemia was above 23.7 µM; with DU-145 prostate, above 16.7 µM; in the experiment on SF-268 CNS it was above 25 µM; with HCT-15 colon it was 15.6 µM.

For `Nc1ccccc1NC(=O)c1ccc(CCCC(=O)Nc2ccc(C3CC3N)cc2)cc1` (stereo not given), the GI50 with ACHN renal is 4.3 µM; in the experiment on A498 renal, 0.747 µM; in the experiment on SK-MEL-5 melanoma, 0.716 µM; in the experiment on OVCAR-3 ovarian, 1.91 µM; in the experiment on MDA-MB-435, 1.57 µM; with EKVX NSCLC it was 4.47 µM. Moreover, the GI50 in the experiment with RPMI-8226 leukemia was 2.79 µM; in the experiment with DU-145 prostate, 2.66 µM; in the experiment with SF-268 CNS, 1.83 µM; with HCT-15 colon, 18.8 µM. The TGI with ACHN renal is 33.5 µM; with A498 renal it was 2.74 µM; in the experiment on SK-MEL-5 melanoma, 2.21 µM; with OVCAR-3 ovarian it was 11.3 µM; in the experiment with MDA-MB-435, 9.05 µM; with EKVX NSCLC, above 100 µM. For the same compound, the TGI in the experiment with RPMI-8226 leukemia was 24.2 µM; in the experiment with DU-145 prostate it was 18.5 µM; with SF-268 CNS, 23 µM; in the experiment with HCT-15 colon, above 100 µM.

As to `CC(C)CC(=O)Nc1n[nH]c2c1CN(C(=O)C1CCN(C)CC1)C2(C)C`, the GI50 is above 10 µM in the experiment with ACHN renal; 2.34 µM in the experiment on A498 renal; 0.743 µM with SK-MEL-5 melanoma; 0.435 µM with OVCAR-3 ovarian; 1.41 µM in the experiment with MDA-MB-435; 1.14 µM with EKVX NSCLC. For the same compound, the GI50 is 0.506 µM in the experiment on RPMI-8226 leukemia, 1.6 µM with DU-145 prostate, 1.9 µM in the experiment on SF-268 CNS and above 10 µM in the experiment with HCT-15 colon. In addition, the TGI in the experiment on ACHN renal is above 10 µM; in the experiment on A498 renal, above 10 µM; in the experiment on SK-MEL-5 melanoma it was 5.7 µM; with OVCAR-3 ovarian, 5.25 µM; with MDA-MB-435, above 10 µM; in the experiment on EKVX NSCLC, above 10 µM. Further, the TGI in the experiment with RPMI-8226 leukemia was 5.97 µM; in the experiment with DU-145 prostate it was above 10 µM; in the experiment with SF-268 CNS, above 10 µM; in the experiment on HCT-15 colon, above 10 µM.

As to `COC1=CC(=O)C(OC)=C(OC)C1=O`, the GI50 in the experiment on ACHN renal is 12.8 µM; in the experiment with A498 renal, above 100 µM; with SK-MEL-5 melanoma it was 16.2 µM; in the experiment with OVCAR-3 ovarian, 17.2 µM; in the experiment on MDA-MB-435 it was 3.16 µM; in the experiment on EKVX NSCLC, 15.9 µM. Moreover, the GI50 in the experiment with RPMI-8226 leukemia was 14.7 µM; in the experiment on DU-145 prostate it was 16 µM; in the experiment on SF-268 CNS, 17.1 µM; with HCT-15 colon it was 16.2 µM. Moreover, the TGI is 25.3 µM in the experiment on ACHN renal; above 100 µM in the experiment on A498 renal; 30.2 µM in the experiment with SK-MEL-5 melanoma; 31.1 µM in the experiment on OVCAR-3 ovarian; 11.1 µM in the experiment on MDA-MB-435; 29.8 µM with EKVX NSCLC. Also, the TGI in the experiment on RPMI-8226 leukemia stood at 42.9 µM; in the experiment with DU-145 prostate it was 29.7 µM; in the experiment on SF-268 CNS, 30.9 µM; with HCT-15 colon, 33.7 µM.

For the origin of these results see PubChem BioAssay (NCI).
